Laboratory results from patent US20010003744A1, “Therapeutic compounds” (priority 1994, published 2001).
pIC50: −log10 of the molar value.

Key:
[1] = Compound cytotoxicity on uninfected MRC5 monolayers, microscopic examination; format: cell-based, human; settings: human, uninfected MRC5 cell monolayers (human embryonic lung cells); uninfected MRC5 cells, 5 days, estimated from microscopic examination; read-out: MRC5 tox CC50
Method: (§1) HCMV strain AD169 was grown on monolayers of human embryonic lung cells (MRC5 cells) in 96 well plates. After infection of the cells at a ratio of approximately 0.01 infectious virus particles per cell, the compounds to be tested were added to selected wells at six different concentrations, each in triplicate. The same concentrations of compound were also applied to wells containing monolayers of uninfected cells in order to assess compound cytotoxicity. The plates were incubated for 5 days, and the minimum cytotoxic dose was estimated from microscopic examination. The IC50 for antiviral effect was estimated from measurements of HCMV DNA in each well by blotting and quantitive specific DNA hybridization, similar to the method of Gadler. (Antimicrob. Agents Chemother. 1983, 24, 370-374).

[2] = tested on: HCMV strain AD169; test: Human Cytomegalovirus (HCMV) assay, HCMV DNA hybridization; format: cell-based; settings: HCMV strain AD169 on MRC5 cells, 5 days, HCMV DNA by blotting and hybridization
Method: as §1

[3] = tested on: MRC5 cells; test: Compound cytotoxicity on uninfected MRC5 monolayers, microscopic examination; format: cell-based, human
Method: as §1

SMILES	melting point	further results
CC(=O)OC[C@@H]1O[C@H](n2c(Br)nc3cc(Cl)c(Cl)cc32)[C@@H](OC(C)=O)[C@H]1OC(C)=O [Example 1, 2-Bromo-5,6-dichloro-1-(2,3,5-tri-O-acetyl-beta-L-ribofuranosyl)-1H-benzimidazole]	< 65 °C	
CC(C)Nc1nc2cc(Cl)c(Cl)cc2n1[C@H]1O[C@@H](CO)[C@H](O)[C@@H]1O [Example 5, 5,6-Dichloro-2-(isopropylamino)-1-(beta-L-ribofuranosyl)-1H-benzimidazole]		CC50 at 5 days [1]: 100 µM; pIC50 ([2]; Human betaherpesvirus 5, 120 h): 7.30 to 7.52
OC[C@@H]1O[C@H](n2c(NCc3ccccc3)nc3cc(Cl)c(Cl)cc32)[C@@H](O)[C@H]1O [Example 7, 2-(Benzylamino)-5,6-dichloro-1-(beta-L-ribofuranosyl)-1H-benzimidazole]	123 °C	
OC[C@@H]1O[C@H](n2c(N3CCC3)nc3cc(Cl)c(Cl)cc32)[C@@H](O)[C@H]1O [Example 8, 2-Azetidino-5,6-dichloro-1-(beta-L-ribofuranosyl)-1H-benzimidazole]		CC50 [3]: 100 µM; pIC50 [2]: 4.39
CC(C)CNc1nc2cc(Cl)c(Cl)cc2n1[C@H]1O[C@@H](CO)[C@H](O)[C@@H]1O [Example 11, 5,6-Dichloro-2-(isobutylamino)-1-(beta-L-ribofuranosyl)-1H-benzimidazole]	136 °C	
OCCNc1nc2cc(Cl)c(Cl)cc2n1[C@H]1O[C@@H](CO)[C@H](O)[C@@H]1O [Example 12, 2-((5,6-Dichloro-1-(beta-L-ribofuranosyl)-1H-benzimidazol-2-yl)amino)ethanol]		CC50 at 5 days [1]: 100 µM; pIC50 ([2]; Human betaherpesvirus 5, 120 h): 5.24 to 5.46
CCCCNc1nc2cc(Cl)c(Cl)cc2n1[C@H]1O[C@@H](CO)[C@H](O)[C@@H]1O [Example 18, 2-(n-Butylamino)-5,6-dichloro-1-(beta-L-ribofuranosyl)-1H-benzimidazole]	220 to 222 °C	
CCC(C)Nc1nc2cc(Cl)c(Cl)cc2n1[C@H]1O[C@@H](CO)[C@H](O)[C@@H]1O (stereo partly drawn) [Example 19, 2-(sec-Butylamino)-5,6-dichloro-1-(beta-L-ribofuranosyl)-1H-benzimidazole]	121 to 122 °C	
OC[C@@H]1O[C@H](n2c(NCCN3CCCC3)nc3cc(Cl)c(Cl)cc32)[C@@H](O)[C@H]1O [Example 22, 5,6-Dichloro-2-((2-(1-pyrrolidinyl)ethyl)amino)-1-(beta-L-ribofuranosyl)-1H-benzimidazole]	123 to 124 °C	
CC(C)(C)Nc1nc2cc(Cl)c(Cl)cc2[nH]1 [Example 26, 2-(tert-Butylamino)-5,6-dichloro-1H-benzimidazole]	219 to 221 °C	

The next lines start with results.

melting point	SMILES	further results
169 °C	OC[C@@H]1O[C@H](n2c(Br)nc3cc(Cl)c(Cl)cc32)[C@@H](O)[C@H]1O [Example 2, 2-Bromo-5,6-dichloro-1-(beta-L-ribofuranosyl)-1H-benzimidazole]	
220 °C (dec.)	C=CCNc1nc2cc(Cl)c(Cl)cc2n1[C@H]1O[C@@H](CO)[C@H](O)[C@@H]1O [Example 4, 2-(Allylamino)-5,6-dichloro-1-(beta-L-ribofuranosyl)-1H-benzimidazole]	CC50 at 5 days [1]: 100 µM; pIC50 ([2]; Human betaherpesvirus 5, 120 h): 5.60 to 6.04
140 °C	OC[C@@H]1O[C@H](n2c(NC3CCCC3)nc3cc(Cl)c(Cl)cc32)[C@@H](O)[C@H]1O [Example 6, 2-(Cyclopentylamino)-5,6-dichloro-1-(beta-L-ribofuranosyl)-1H-benzimidazole]	
182 to 184 °C	C#CCNc1nc2cc(Cl)c(Cl)cc2n1[C@H]1O[C@@H](CO)[C@H](O)[C@@H]1O [Example 9, 5,6-Dichloro-2-(propargylamino)-1-(beta-L-ribofuranosyl)-1H-benzimidazole]	
231 to 233 °C	CCCNc1nc2cc(Cl)c(Cl)cc2n1[C@H]1O[C@@H](CO)[C@H](O)[C@@H]1O [Example 10, 5,6-Dichloro-2-(n-propylamino)-1-(beta-L-ribofuranosyl)-1H-benzimidazole]	CC50 at 5 days [1]: 100 µM; pIC50 ([2]; Human betaherpesvirus 5, 120 h): 5.89 to 5.96
220 to 221 °C	OC[C@@H]1O[C@H](n2c(NC3CCC3)nc3cc(Cl)c(Cl)cc32)[C@@H](O)[C@H]1O [Example 20, 2-(Cyclobutylamino)-5,6-dichloro-1-(beta-L-ribofuranosyl)-1H-benzimidazole]	
229 to 230 °C	OC[C@@H]1O[C@H](n2c(NCC3CC3)nc3cc(Cl)c(Cl)cc32)[C@@H](O)[C@H]1O [Example 23, 2-((Cyclopropylmethyl)amino)-5,6-dichloro-1-(beta-L-ribofuranosyl)-1H-benzimidazole]	
118 to 120 °C	CC(C)(C)Nc1nc2cc(Cl)c(Cl)cc2n1[C@H]1O[C@@H](CO)[C@H](O)[C@@H]1O [Example 24, 2-(tert-Butylamino)-5,6-dichloro-1-(beta-L-ribofuranosyl)-1H-benzimidazole]	
110 to 112 °C	Nc1nc2cc(Cl)c(Cl)cc2n1[C@H]1O[C@@H](CO)[C@H](O)[C@@H]1O [Example 27, 2-Amino-5,6-dichloro-1-(beta-L-ribofuranosyl)-1H-benzimidazole]	
238 to 240 °C	CNc1nc2cc(Cl)c(Cl)cc2n1[C@H]1O[C@@H](CO)[C@H](O)[C@@H]1O [Example 33, 5,6-Dichloro-2-(methylamino)-1-(beta-L-ribofuranosyl)-1H-benzimidazole]	
155 to 157 °C	CCNc1nc2cc(Cl)c(Cl)cc2n1[C@H]1O[C@@H](CO)[C@H](O)[C@@H]1O [Example 34, 5,6-Dichloro-2-(ethylamino)-1-(beta-L-ribofuranosyl)-1H-benzimidazole]	CC50 at 5 days [1]: 100 µM; pIC50 ([2]; Human betaherpesvirus 5, 120 h): 6.07 to 6.12
140 to 141 °C	OC[C@@H]1O[C@@H](n2c(NC3CC3)nc3cc(Cl)c(Cl)cc32)[C@@H](O)[C@H]1O [Example 35, 2-Cyclopropylamino-5,6-dichloro-1-(alpha-L-ribofuranosyl)-1H-benzimidazole]	
